Results: patent US20110008396A1, “COMPOSITIONS AND METHODS FOR TREATING CARDIOVASCULAR CONDITIONS” (Rutgers, the Sate University of New Jersey, priority 2007, published 2011)
Entries after “also recorded” stand apart in the source; their conditions may differ.

Columns and labels:
THP-1 macrophages [1] = assay: Efflux of high density lipoproteins (HDL secretion); assay type: cell-based, human; details: macrophages pre-loaded with hoxLDL 30 μg/ml, ApoA1 present
Protocol: In brief, differentiated THP-1 macrophages were pre-incubated with 30 μg/ml highly oxidized LDL at 37° C. in serum-free RPMI 1640 for 24 hr. Next, NAPs at 10^−6 M and 10 ug/mL ApoA1 with or without 10^−7 M GW3965 were added to each well and incubated for a further 24 hours. The cell medium was then removed for analysis using the Biovision HDL and LDL/VLDL Cholesterol Quantification kit (BioVision, CA). The remaining macrophages were lysed using 0.03 g sodium dodecyl sulfate (SDS) in 30 ml sodium hydroxide (NaOH, 0.1N). The protein content was measured with the Modified Lowry protein assay (Pierce, Ill.) and the HDL secretion results were normalized per mg cell protein.

LXRalpha = details: GW3965 at concentrations as high as 1*10^-6 M; cited from earlier work
THP-1 macrophages [2] = assay: GW internalization study (multiphoton imaging); assay type: cell-based, human; details: 5 hr, polymer 10^-6 M
Protocol: In brief, differentiated THP-1 macrophages were incubated with NAPs at 10^−6 M and/or 10^−7M GW3965 for 5 hr in serum-free RPMI at 37° C. Cells were washed and fixed and multiphoton imaging to detect internalized GW3965 was performed on a Leica TCS SP2 system (Leica Microsystems, Inc., Exton, Pa.). The cells were illuminated using a titanium: sapphire femtosecond laser with a tunable wavelength from 780 nm to 920 nm (Mai Tai, repetition rate 80 Mhz, 100 fs pulse duration, 800 mW) and 470-500 nm emission.

THP-1 macrophages [3] = assay: hoxLDL efflux from macrophage cells; assay type: cell-based, human; details: GW3965 10^-8 M, NAPs 10^-6 M
Protocol: THP-1, human monocytes, are grown in suspension, with RPMI medium containing 0.4 mM Ca^2+ and Mg^2+, (ATCC) and supplemented with 10% FBS, in an incubator with 5% CO2 at 37 C and split every four days through centrifugation. The cells are seeded at a concentration of 100,000 cells/cm^2 to continue monocyte cultures and to differentiate the cells into macrophage cells. Once the monocytes have been differentiated into macrophage cells they will become adherent and can be tested. The macrophage cells can not be propagated and will be used within a week of differentiation.
Highly oxidized LDL will be oxidized within five days of each experiment. BODIPY-labeled and unlabeled human plasma derived LDL (Molecular Probes, OR) is oxidized by 18 hours of incubation with 10 uM CuSO4 (Sigma) at 37 C with 5% CO2. (Oorni 1997; Chang 2001) The oxidation will be stopped with 0.01% w/v EDTA after the 18 hours.
The efflux of hoxLDL by macrophage cells was assayed by incubating fluorescently labeled hoxLDL (10 ug/mL) with cells for 2 hours at 37 C and 5% CO2. […] The images were analyzed with Image Pro Plus 5.1 software (Media Cybernetics, San Diego, Calif.) and normalized with cell number and compared to the control sample wherein no NAPs or ligand was administered.

ABCA1 = details: GW3965 at concentrations as high as 1*10^-6 M; cited from earlier work

O=C(O)Cc1cccc(OCCCN(Cc2cccc(C(F)(F)F)c2Cl)CC(c2ccccc2)c2ccccc2)c1 [GW3965]
HDL secreted versus 100 percent baseline (in words) (THP-1 macrophages [1]): not significantly different | LXRalpha increase in HepG2 cells (LXRalpha): ≤ 3 fold | internalization of GW3965 by macrophages (multiphoton images, in words) (THP-1 macrophages [2]): minimal uptake; also recorded: no drug uptake | hoxLDL efflux (in words) (THP-1 macrophages [3]; 5 hours): not effective | less hoxLDL within the cells / cholesterol released (efflux) versus nothing administered (THP-1 macrophages [3]; hoxLDL 10 ug/mL 2 h, then test condition 5 h): 4% | ABCA1 increase in HepG2 cells (ABCA1): ≤ 6 fold
